The test system of series [1] is IL-1β. As to the kind of experiment: rat model of Alzheimer's disease induced by Aβ25-35: IL-1β production and release. Format: in vivo.
In series [2] the test system is nerve cells. Nature of the series: rat model of Alzheimer's disease induced by Aβ25-35: toxicity of Aβ25-35 to nerve cells. Format: in vivo.
For series [3], the target named is acetylcholinesterase (Homo sapiens, UniProt P22303). Nature of the series: inhibiting acetylcholinesterase in vitro. Format: biochemical. As to conditions: compared with donepezil.
For series [4], the system named is TNF-α. Nature of the series: rat model of Alzheimer's disease induced by Aβ25-35: TNF-α production and release. It counts as in vivo.
Series [5] can be described thus: chelation of transition metal ions in vitro. It counts as physicochemical.
Series [6] in a line: acute toxicity test in mice. As to conditions: compared with donepezil.
Series [7] can be described thus: Phase 1 Clinical Single Ascending Dose study (SAD). Particulars: subjects; 90 mg in a single dose. Format: in vivo.
Series [8] is described as follows: Morris water maze test. Particulars: compared with donepezil. Format: in vivo.

acetylcholinesterase, sequence (P22303 32-614): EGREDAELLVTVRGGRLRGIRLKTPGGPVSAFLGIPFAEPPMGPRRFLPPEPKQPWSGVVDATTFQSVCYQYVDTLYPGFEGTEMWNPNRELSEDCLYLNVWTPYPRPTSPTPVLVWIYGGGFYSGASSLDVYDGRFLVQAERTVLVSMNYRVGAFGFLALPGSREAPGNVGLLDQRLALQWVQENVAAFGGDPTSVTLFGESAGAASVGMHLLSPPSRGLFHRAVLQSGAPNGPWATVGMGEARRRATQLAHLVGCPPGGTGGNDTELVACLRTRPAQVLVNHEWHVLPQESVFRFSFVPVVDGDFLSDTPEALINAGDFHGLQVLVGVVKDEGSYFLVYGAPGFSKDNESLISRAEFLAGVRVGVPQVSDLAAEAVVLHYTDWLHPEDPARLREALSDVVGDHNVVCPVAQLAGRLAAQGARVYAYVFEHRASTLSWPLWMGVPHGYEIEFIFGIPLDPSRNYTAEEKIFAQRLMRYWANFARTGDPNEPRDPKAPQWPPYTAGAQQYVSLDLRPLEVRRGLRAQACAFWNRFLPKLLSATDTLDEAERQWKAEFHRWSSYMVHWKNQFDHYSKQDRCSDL

As to `O=C1c2cc3c(cc2C2(CC2)N1CCC1CCN(Cc2ccccn2)CC1)OCO3` [AD-35, 6-[2-[1-(2-pyridylmethyl)-4-piperidinyl]ethyl]spiro[[1,3]dioxolo[4,5-f]isoindole-7,1′-cyclopropane]-5-one phosphate], the “production and release of pro-inflammatory cytokine IL-1β” value in series [1] is reported as “significantly inhibit”. Moreover, the “toxicity of Aβ25-35 to nerve cells” value in series [2] is “greatly reduces the toxicity of Aβ25-35 to nerve cells”. In series [3], the “activity of inhibiting acetylcholinesterase in vitro relative to donepezil” value is “about one-tenth of the activity of donepezil”. The “production and release of pro-inflammatory cytokine TNF-α” value in series [4] is “significantly inhibit”. For the same compound, in series [5], the “ability to chelate transition metal ions such as Cu^2+” value was “exhibits a certain ability to chelate transition metal ions”. For the same compound, the acute toxicity entry in series [6] was “much less toxic than donepezil”. Besides, the adverse reactions entry in series [7] was “did not develop adverse reactions”. Moreover, in series [8], the “efficacy in the Morris water maze test (improving memory and learning ability)” value is given as “comparable efficacy to that of donepezil”.

These data come from patent publication US10399992B2, “Process for preparing AD-35” (Zhejiang Hisun Pharmaceutical Co., Ltd., priority 2016, dated 2019).
